Earlier results as cited in patent US9579288B2, “Tesofensine and beta blocker combination formulations” (Saniona A/S, priority 2015, dated 2017).

Key:
[1] = obese patients, long-term treatment, corrected for placebo and diet effects
[2] = system: DIO rats; settings: rat model of diet-induced obesity (DIO)

**Q.** Which weight loss [1] does the source give for `CCOC[C@@H]1[C@@H](c2ccc(Cl)c(Cl)c2)C[C@@H]2CC[C@H]1N2C` [Tesofensine, (1R,2R,3S,5S)-3-(3,4-dichlorophenyl)-2-(ethoxymethyl)-8-methyl-8-azabicyclo[3.2.1]octane] here?
**A.** Its weight loss is “about 10%”.

**Q.** What about the body weight [2] of the same molecule?
**A.** The body weight was “robust and sustained weight loss”.
